# Experiments:
# [1] = test system: IL-2 secretion by human effector memory T cells (TEM); assay: Effector memory T cells IL-2 release assay; assay type: cell-based; conditions: T-cell; human CD4+ effector memory T cells, CD3/CD28 bead stimulation, 24 h; read-out: CD4TC IL2 IC50
# Procedure, shortened: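 Human CD4+ effector memory T cells from healthy-donor buffy coats were stimulated with anti-CD3/CD28 Dynabeads and exposed to 10 semi-log compound doses (0.1% DMSO) for 24 h at 37 °C. Supernatant IL-2 was measured by HTRF, and IC50 came from a 4-parameter logistic fit to maximal IL-2. Viability was checked by flow cytometry.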
# [2] = target: Recombinant human MALT-1 (amino acids 340-824) (Homo sapiens (Human), UniProt Q9UDY8); assay: MALT-1 inhibition assay (fluorogenic substrate Ac-LRSR-Rh110-DP); assay type: biochemical; conditions: recombinant human MALT-1, substrate Ac-LRSR-Rh110-DP
# Recombinant human MALT-1 (amino acids 340-824), sequence (Q9UDY8 340-824): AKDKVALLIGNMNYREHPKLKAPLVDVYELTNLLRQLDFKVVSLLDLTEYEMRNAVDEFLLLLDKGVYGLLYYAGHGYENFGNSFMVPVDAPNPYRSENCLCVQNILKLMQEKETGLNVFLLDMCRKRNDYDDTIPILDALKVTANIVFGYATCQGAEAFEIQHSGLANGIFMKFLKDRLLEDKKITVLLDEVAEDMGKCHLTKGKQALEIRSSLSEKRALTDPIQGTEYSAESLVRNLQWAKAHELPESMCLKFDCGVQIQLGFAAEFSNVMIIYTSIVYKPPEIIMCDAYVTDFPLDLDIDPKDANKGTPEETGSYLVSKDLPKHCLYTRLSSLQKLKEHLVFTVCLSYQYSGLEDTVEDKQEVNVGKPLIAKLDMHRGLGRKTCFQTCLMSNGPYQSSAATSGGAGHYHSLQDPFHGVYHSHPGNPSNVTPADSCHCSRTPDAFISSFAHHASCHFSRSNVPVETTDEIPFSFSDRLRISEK
# Procedure, shortened: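 Reactions were started with fluorogenic substrate Ac-LRSR-Rh110-DP (10 μM final) against 3 nM enzyme and kept dark at 25° C for 60 minutes. IC50 values came from 4-parameter logistic fits of percent inhibition calculated from relative fluorescence units.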
Structure (SMILES),IC50 [1],IC50 [2]
"COC[C@@]1(C)CCN(c2ccc([C@H](N(C)C(=O)[C@H]3CC[S@](=N)(=O)CC3)C(F)(F)F)cc2)c2cnc3cc(Cl)nn3c21 (relative stereo) [CPD0073134, (1rel-r,4rel-r)-N-[(1S)-1-[4-[(13rel-S)-4-chloro-13-(methoxymethyl)-13-methyl-2,3,7,10-tetrazatricyclo[7.4.0.0^2,6]trideca-1(9),3,5,7-tetraen-10-yl]phenyl]-2,2,2-trifluoro-ethyl]-1-imino-N-methyl-1-oxo-1λ^6-thiane-4-carboxamide]",57 nM,85 nM
"Cc1nn(C)cc1C(=O)N(C)[C@@H](c1ccc(N2CCCc3c2cnc2cc(Cl)nn32)cc1)C(F)(F)F [CPD0019347, N-[(1S)-1-(4-{4-chloro-2,3,7,10-tetraazatricyclo[7.4.0.0^2,6]trideca-1(9),3,5,7-tetraen-10-yl}phenyl)-2,2,2-trifluoroethyl]-N,1,3-trimethyl-1H-pyrazole-4-carboxamide]",132 nM,244 nM
"CN(C(=O)C[C@H]1CCS(=O)(=O)C1)[C@@H](c1ccc(N2CCCc3c2cnc2cc(Cl)nn32)cc1)C(F)(F)F (relative stereo) [CPD0072799, N-[(1S)-1-(4-{4-chloro-2,3,7,10-tetraazatricyclo[7.4.0.0^2,6]trideca-1(9),3,5,7-tetraen-10-yl}phenyl)-2,2,2-trifluoroethyl]-2-[(3rel-S)-1,1-dioxo-1λ^6-thiolan-3-yl]-N-methylacetamide]",178 nM,88 nM
"CN(C(=O)[C@H]1CC[S@@+]([O-])CC1)[C@@H](c1ccc(N2CCCc3c2cnc2cc(Cl)nn32)cc1)C(F)(F)F (relative stereo) [CPD0022136, (1rel-s,4rel-s)-N-[(1S)-1-(4-{4-chloro-2,3,7,10-tetraazatricyclo[7.4.0.0^2,6]trideca-1(9),3,5,7-tetraen-10-yl}phenyl)-2,2,2-trifluoroethyl]-N-methyl-1-oxo-1λ^4-thiane-4-carboxamide]",106 nM,45 nM
"C[C@H]1CCN(c2ccc([C@H](N(C)C(=O)[C@@H]3CCC(=O)NC3)C(F)(F)F)cc2)c2cnc3cc(Cl)nn3c21 (relative stereo) [CPD0074567, (3rel-R)-N-[(1S)-1-[4-[(13rel-S)-4-chloro-13-methyl-2,3,7,10-tetrazatricyclo[7.4.0.0^2,6]trideca-1(9),3,5,7-tetraen-10-yl]phenyl]-2,2,2-trifluoro-ethyl]-N-methyl-6-oxo-piperidine-3-carboxamide]",87 nM,31 nM
"CN(C(=O)C1CCOC1)[C@@H](c1ccc(N2CCCc3c2cnc2cc(Cl)nn32)cc1)C(F)(F)F (stereo partly drawn) [CPD0021568, N-[(1S)-1-(4-{4-chloro-2,3,7,10-tetraazatricyclo[7.4.0.0^2,6]trideca-1(9),3,5,7-tetraen-10-yl}phenyl)-2,2,2-trifluoroethyl]-N-methyloxolane-3-carboxamide]",143 nM,169 nM
"COc1cncc2c1CCCN2c1ccc(C(N(C)C(=O)C2CCS(=O)(=O)CC2)C(F)(F)F)cc1 (stereo in doubt) [CPD0021939, N-methyl-1,1-dioxo-N-[(1S)-2,2,2-trifluoro-1-[4-(5-methoxy-3,4-dihydro-2H-1,7-naphthyridin-1-yl)phenyl]ethyl]thiane-4-carboxamide]",894 nM,271 nM
"CN(C(=O)[C@@H]1C[C@H]2CC[C@@H](C1)S2(=O)=O)[C@@H](c1ccc(N2CCCc3c2cnc2cc(Cl)nn32)cc1)C(F)(F)F [CPD0072938, (1R,3R,5S)-N-[(1S)-1-(4-{4-chloro-2,3,7,10-tetraazatricyclo[7.4.0.0^2,6]trideca-1(9),3,5,7-tetraen-10-yl}phenyl)-2,2,2-trifluoroethyl]-N-methyl-8,8-dioxo-8λ^6-thiabicyclo[3.2.1]octane-3-carboxamide]",92 nM,90 nM
"CN(C(=O)C1CCCO1)[C@@H](c1ccc(N2CCCc3c2cnc2cc(Cl)nn32)cc1)C(F)(F)F (stereo partly drawn) [CPD0021570, N-[(1S)-1-(4-{4-chloro-2,3,7,10-tetraazatricyclo[7.4.0.0^2,6]trideca-1(9),3,5,7-tetraen-10-yl}phenyl)-2,2,2-trifluoroethyl]-N-methyloxolane-2-carboxamide]",142 nM,147 nM
"CN(C(=O)CN1C(=O)COC1=O)[C@@H](c1ccc(N2CCCc3c2cnc2cc(Cl)nn32)cc1)C(F)(F)F [CPD0073237, N-[(1S)-1-(4-{4-chloro-2,3,7,10-tetraazatricyclo[7.4.0.0^2,6]trideca-1(9),3,5,7-tetraen-10-yl}phenyl)-2,2,2-trifluoroethyl]-2-(2,4-dioxo-1,3-oxazolidin-3-yl)-N-methylacetamide]",513 nM,174 nM
"CN(C(=O)C1CN(S(C)(=O)=O)C1)[C@@H](c1ccc(N2CCCc3c2cnc2cc(Cl)nn32)cc1)C(F)(F)F [CPD0073238, N-[(1S)-1-(4-{4-chloro-2,3,7,10-tetraazatricyclo[7.4.0.0^2,6]trideca-1(9),3,5,7-tetraen-10-yl}phenyl)-2,2,2-trifluoroethyl]-1-methanesulfonyl-N-methylazetidine-3-carboxamide]",174 nM,87 nM
"COc1ccc2ncc(Nc3ccc([C@H](N(C)C(=O)[C@H]4CC[S@@](=N)(=O)CC4)C(F)(F)F)cc3)c([C@H](C)OC)c2n1 (stereo in doubt) [CPD0073129, (1 rel-s,4rel-s)-1-imino-N-methyl-1-oxo-N-[(1S)-2,2,2-trifluoro-1-[4-({6-methoxy-4-[(1 rel-S)-1-methoxyethyl]-1,5-naphthyridin-3-yl}amino)phenyl]ethyl]-1λ^6-thiane-4-carboxamide]",36 nM,64 nM
"COc1ccc2ncc(Nc3ccc([C@H](N(C)C(=O)[C@H]4CCN(C(=O)CO)C4)C(F)(F)F)cc3)c([C@H](C)OC)c2n1 (relative stereo) [CPD0075882, (3 rel S)-1-(2-hydroxyacetyl)-N-methyl-N-[(1S)-2,2,2-trifluoro-1-[4-[[6-methoxy-4-[(1 rel S)-1-methoxyethyl]-1,5-naphthyridin-3-yl]amino]phenyl]ethyl]pyrrolidine-3-carboxamide]",40 nM,64 nM
"CN(C(=O)C1CN(C(=O)[C@@H]2CCO2)C1)[C@@H](c1ccc(N2CCCc3c2cnc2cc(Cl)nn32)cc1)C(F)(F)F (relative stereo) [CPD0073563, N-[(1S)-1-(4-{4-chloro-2,3,7,10-tetraazatricyclo[7.4.0.0^2,6]trideca-1(9),3,5,7-tetraen-10-yl}phenyl)-2,2,2-trifluoroethyl]-N-methyl-1-[(2rel-S)-oxetane-2-carbonyl]azetidine-3-carboxamide]",269 nM,62 nM
CC(=O)N1CCC(C(=O)N(C)[C@@H](c2ccc(N3CC[C@@H](C)c4c3cnc3cc(Cl)nn43)cc2)C(F)(F)F)CC1 [CPD0074558],67 nM,74 nM
COCC1CCN(c2ccc([C@H](N(C)C(=O)C3CCS(=O)(=O)CC3)C(F)(F)F)cc2)c2cnc3cc(Cl)nn3c21 (some centres unmarked) [CPD0072775],143 nM,94 nM
"CN(C(=O)[C@H]1CC[S@@](=N)(=O)CC1)[C@@H](c1ccc(N2CCCc3c2cnc2cc(Cl)nn32)cc1)C(F)(F)F (relative stereo) [CPD0072528, (1rel-s,4rel-S)-N-[(1S)-1-(4-{4-chloro-2,3,7,10-tetraazatricyclo[7.4.0.0^2,6]trideca-1(9),3,5,7-tetraen-10-yl}phenyl)-2,2,2-trifluoroethyl]-1-imino-N-methyl-1-oxo-1λ^6-thiane-4-carboxamide]",108 nM,32 nM
CN(C(=O)C1CC[S+]([O-])CC1)[C@@H](c1ccc(N2CCCc3c2cnc2cc(Cl)nn32)cc1)C(F)(F)F (some centres unmarked) [CPD0019481],86 nM,76 nM
"COC(C)c1c(Nc2ccc([C@H](N(C)C(=O)C3CCS(=O)(=O)CC3)C(F)(F)F)cn2)cnc2ccc(Cl)nc12 (stereo partly drawn) [CPD0019499, N-[(1S)-1-(6-{[6-chloro-4-(1-methoxyethyl)-1,5-naphthyridin-3-yl]amino}pyridin-3-yl)-2,2,2-trifluoroethyl]-N-methyl-1,1-dioxo-1λ^6-thiane-4-carboxamide]",190 nM,80 nM
"CN(C(=O)CN1CCOCC1)[C@@H](c1ccc(N2CCCc3c2cnc2cc(Cl)nn32)cc1)C(F)(F)F [CPD0073243, N-[(1S)-1-(4-{4-chloro-2,3,7,10-tetraazatricyclo[7.4.0.0^2,6]trideca-1(9),3,5,7-tetraen-10-yl}phenyl)-2,2,2-trifluoroethyl]-N-methyl-2-(morpholin-4-yl)acetamide]",315 nM,273 nM
"COc1ccc2ncc(Nc3ccc([C@H](N(C)C(=O)[C@H]4CC[S@](=N)(=O)CC4)C(F)(F)F)cc3)c([C@H](C)OC)c2n1 (stereo in doubt) [CPD0073130, (1 rel-r,4rel-r)-1-imino-N-methyl-1-oxo-N-[(1S)-2,2,2-trifluoro-1-[4-({6-methoxy-4-[(1 rel-S)-1-methoxyethyl]-1,5-naphthyridin-3-yl}amino)phenyl]ethyl]-1λ^6-thiane-4-carboxamide]",24 nM,61 nM
"CN(C(=O)[C@H]1C[C@H](C(=O)O)C1)[C@@H](c1ccc(N2CCCc3c2cnc2cc(Cl)nn32)cc1)C(F)(F)F [CPD0072439, (trans)-3-{[(1S)-1-(4-{4-chloro-2,3,7,10-tetraazatricyclo[7.4.0.0^2,6]trideca-1(9),3,5,7-tetraen-10-yl}phenyl)-2,2,2-trifluoroethyl](methyl)carbamoyl}cyclobutane-1-carboxylic acid]",557 nM,35 nM
